According to PMC7802075 (ACS Infectious Diseases, 2020):
Where a SMILES comes first, the peptide text is derived from it. The star is where a group is joined. For = O=C*

Each compound was assayed against T1, LmjIPCS (inositol phosphorylceramide synthase from L. major) (Leishmania major, UniProt E9AFX2) (assay: biochemical). Settings: not given.
T1 sequence (E9AFX2 1-338): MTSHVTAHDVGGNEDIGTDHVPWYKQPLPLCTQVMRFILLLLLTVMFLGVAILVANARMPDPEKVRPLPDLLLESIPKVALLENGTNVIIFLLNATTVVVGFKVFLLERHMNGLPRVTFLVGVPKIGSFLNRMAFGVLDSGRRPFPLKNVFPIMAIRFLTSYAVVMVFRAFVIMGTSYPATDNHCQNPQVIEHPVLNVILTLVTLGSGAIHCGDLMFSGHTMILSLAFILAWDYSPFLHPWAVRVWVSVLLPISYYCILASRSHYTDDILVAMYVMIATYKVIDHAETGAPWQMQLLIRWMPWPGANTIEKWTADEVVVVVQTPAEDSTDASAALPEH
Format: biochemical
Set-up: inhibition: dose or concentration left out as unconfirmed

| Compound | 20mM inhibition LmjIPCS [%] |
| --- | --- |
| CCCCC1C(=O)N(c2ccccc2)N(c2ccc(O)cc2)C1=O (centres unmarked) [OXYPHENBUTAZONE] | 45 |
| COc1ccc2c3c([nH]c2c1)C(C)=NCC3 [HARMALINE] | 54 |
| HECOGENIN | 23 |
| C[C@@H]1[C@H](O)[C@@H](C)/C=C/C=C/CC/C=C/C=C/C=C/C=C/C(O[C@H]2O[C@H](C)[C@@H](O)[C@H](N)[C@@H]2O)CC2O[C@](O)(CC(O)C(O)CCC(O)CC(O)CC(O)CC(=O)O[C@H]1C)CC(O)C2C(=O)O (some centres unmarked) [NYSTATIN] | 32 |
| C[C@H](N)[C@H](O)c1cccc(O)c1 [METARAMINOL] | 58 |
| CC1=C(/C=C/C(C)=C/C=C/C(C)=C/C=C/C=C(C)/C=C/C=C(C)/C=C/C2=C(C)CCCC2(C)C)C(C)(C)CCC1 [beta-CAROTENE] | 45 |
| C=C[C@H]1C[N@@]2CC[C@H]1C[C@@H]2[C@@H](O)c1ccnc2ccc(OC)cc12 [QUINIDINE] | 55 |
| Cc1ccc(-c2cc(C(F)(F)F)nn2-c2ccc(S(N)(=O)=O)cc2)cc1 [CELECOXIB] | 51 |
| CC(C)OC(=O)C(C)(C)Oc1ccc(C(=O)c2ccc(Cl)cc2)cc1 [FENOFIBRATE] | 58 |
| O=C(CC(=O)c1ccccc1)c1ccccc1 [DIBENZOYLMETHANE] | 44 |
| Oc1c(Br)cc(Br)c2cccnc12 [BROXYQUINOLINE] | 61 |
| CCN(CC)CCOCCOC(=O)C1(c2ccccc2)CCCC1 [CARBETAPENTANE] | 51 |
| O=C(CCCN1CC=C(n2c(=O)[nH]c3ccccc32)CC1)c1ccc(F)cc1 [DROPERIDOL] | 56 |

Same assay, conditions: NINDS set screen, compound at 20mM (so in the source)

| Compound | 20mM inhibition LmjIPCS [%] |
| --- | --- |
| COc1ccc2cc([C@H](C)C(=O)O)ccc2c1 [NAPROXEN(+)] | 18 |

Same assay, conditions: NINDS set screen, single concentration printed as 20mM

| Compound | 20mM inhibition LmjIPCS [%] |
| --- | --- |
| CSc1ccc2c(c1)C(N1CCN(C)CC1)Cc1ccccc1S2 (centres unmarked) [METHIOTHEPIN] | 55 |
| O=C1c2c(O)ccc(O)c2C(=O)c2c(NCCNCCO)ccc(NCCNCCO)c21 [MITOXANTHRONE] | 63 |
| CCCC(C(=O)OCCN(CC)CC)(c1ccccc1)c1ccccc1 [PROADIFEN] | 36 |
| CC[C@]12CCCN3CCc4c(n(c5ccccc45)C(=O)C1)[C@@H]32 [VINBURNINE] | 55 |

Same assay, conditions: NINDS set screen; read-out: inhibition LmjIPCS

| Compound | inhibition [%] |
| --- | --- |
| O=C(O)c1ccccc1OP(=O)(O)O [FOSFOSAL] | 13 |
| OCc1ccccc1O [SALICYL ALCOHOL] | 23 |
| Cc1cc(C)cc(OCC2CNC(=O)O2)c1 (centres unmarked) [METAXALONE] | -4.75 |
| O=c1[nH]c(=O)n([C@H]2C[C@H](O)[C@@H](CO)O2)cc1F [FLOXURIDINE] | -2.28 |
| CC[C@H]1OC(=O)[C@H](C)[C@@H](O[C@H]2C[C@@](C)(OC)[C@@H](O)[C@H](C)O2)[C@H](C)[C@@H](O[C@@H]2O[C@H](C)C[C@H](N(C)C)[C@H]2O)[C@](C)(O)C[C@@H](C)CN(C)[C@H](C)[C@@H](O)[C@]1(C)O [AZITHROMYCIN] | 19 |

Same assay, conditions: read-out: 20mM inhibition LmjIPCS

| Compound | inhibition at 20000 µM [%] |
| --- | --- |
| CC(COc1ccccc1)N(CCCl)Cc1ccccc1 (centres unmarked) [PHENOXYBENZAMINE] | 31 |
| CC(C)(S)[C@@H](N)C(=O)O [PENICILLAMINE] | 20 |
| CN[C@H](CC(C)C)C(=O)N[C@H]1C(=O)N[C@@H](CC(N)=O)C(=O)N[C@H]2C(=O)N[C@H]3C(=O)N[C@H](C(=O)N[C@H](C(=O)O)c4cc(O)cc(O)c4-c4cc3ccc4O)[C@H](O)c3ccc(c(Cl)c3)Oc3cc2cc(c3O[C@@H]2O[C@H](CO)[C@@H](O)[C@H](O)[C@H]2O[C@H]2C[C@](C)(N)[C@H](O)[C@H](C)O2)Oc2ccc(cc2Cl)[C@H]1O [VANCOMYCIN] | 31 |
| NS(=O)(=O)c1cc2c(cc1C(F)(F)F)NCNS2(=O)=O [HYDROFLUMETHIAZIDE] | 9 |
| CC(C(=O)O)c1ccc(C(=O)c2cccs2)cc1 (centres unmarked) [SUPROFEN] | 5 |
| [N-]=[N+]=CC(=O)OC[C@H](N)C(=O)O [AZASERINE] | 14 |
| COc1cccc(OC)c1C(=O)N[C@@H]1C(=O)N2[C@@H]1SC(C)(C)[C@@H]2C(=O)O [METHICILLIN] | 17 |
| CN[C@@H]1[C@@H](O)[C@@H](O[C@@H]2[C@@H](O)[C@H](O[C@H]3OC(CN)=CC[C@H]3N)[C@@H](N)C[C@H]2N)OC[C@]1(C)O [SISOMICIN] | 19 |
| C[C@@H]1O[C@@H](Oc2c(-c3ccc(O)c(O)c3)oc3cc(O)cc(O)c3c2=O)[C@H](O)[C@H](O)[C@H]1O [QUERCITRIN] | 6.42 |
| Sc1nc2ccccc2s1 [2-MERCAPTOBENZOTHIAZOLE] | 24 |
| NC12CC3CC(CC(C3)C1)C2 [AMANTADINE] | 30 |
| Nc1c2ccccc2nc2ccccc12 [AMINACRINE] | -11 |
| O=c1c(O)c(-c2ccc(O)cc2O)oc2cc(O)cc(O)c12 [MORIN] | 4 |
| O=C1c2ccccc2C(=O)c2ccccc21 [ANTHRAQUINONE] | 10 |
| Cc1ncc([N+](=O)[O-])n1CC(C)O (centres unmarked) [SECNIDAZOLE] | 12 |
| N[C@H]1C(O)O[C@H](CO)[C@@H](O)[C@@H]1O (some centres unmarked) [GLUCOSAMINE] | 10 |
| CC(C)C(=O)Nc1ccc([N+](=O)[O-])c(C(F)(F)F)c1 [FLUTAMIDE] | -1.8 |
| O=C1O[C@H](CO)[C@@H](O)[C@H](O)[C@H]1O [GLUCONOLACTONE] | 0.589 |
| C[C@H](CS)C(=O)N1CCC[C@H]1C(=O)O [CAPTOPRIL] | 1.19 |
| CC(C)C[C@H](CN)CC(=O)O [PREGABALIN] | 12 |

Same assay, conditions: read-out: inhibition LmjIPCS

| Compound | inhibition [%] |
| --- | --- |
| COC(=O)Nc1nc2ccc(C(=O)c3ccccc3)cc2[nH]1 [MEBENDAZOLE] | 18 |
| CCCCc1nc(Cl)c(CO)n1Cc1ccc(-c2ccccc2-c2nn[nH]n2)cc1 [LOSARTAN] | -2.81 |
| C[C@@H]1CC[C@H]2[C@@H](C)C(=O)O[C@@H]3O[C@@]4(C)CC[C@@H]1[C@]32OO4 [ARTEMISININ] | 1.06 |
| NCCCC[C@H](N[C@@H](CCc1ccccc1)C(=O)O)C(=O)N1CCC[C@H]1C(=O)O [LISINOPRIL] | 6 |
| C=C1CC[C@H](O)C/C1=C/C=C1\CCC[C@]2(C)[C@@H]([C@H](C)/C=C/[C@H](C)C(C)C)CC[C@@H]12 [ERGOCALCIFEROL] | -1.77 |
| COC(=O)Nc1nc2ccc(Sc3ccccc3)cc2[nH]1 [FENBENDAZOLE] | 20 |
| CC1=C(CC(=O)O)c2cc(F)ccc2/C1=C\c1ccc([S+](C)[O-])cc1 (centres unmarked) | 12 |
| NS(=O)(=O)c1cc2c(cc1Cl)NC(C(Cl)Cl)NS2(=O)=O (centres unmarked) [TRICHLORMETHIAZIDE] | 20 |

Same assay, conditions: screening of NINDS set, sheet Screen 1; read-out: inhibition LmjIPCS

| Compound | inhibition [%] |
| --- | --- |
| COc1cc(OC)c2ccc(=O)oc2c1 [CITROPTEN] | 2.18 |
| O=C(COc1ccc(Cl)cc1)N1CCN(Cc2ccc3c(c2)OCO3)CC1 [FIPEXIDE] | 2.64 |
| COc1ccc2cc([C@H](C)CO)ccc2c1 [NAPROXOL] | 4.4 |
| CC(C)(C)NCC(O)COc1cccc2c1CC(O)C(O)C2 (centres unmarked) [NADOLOL] | 9 |
| CC1(C)S[C@@H]2[C@H](N3C(=O)[C@@H](c4ccccc4)NC3(C)C)C(=O)N2[C@H]1C(=O)O [HETACILLIN] | 2 |
| CCC(C(N)=O)c1ccccc1 (centres unmarked) [FENBUTYRAMIDE] | 9 |
| CC1(C)OC(=O)NC1=O [DIMETHADIONE] | 6.6 |

Same assay, conditions: single concentration 20mM as printed; screening of NINDS set, sheet Screen 1

| Compound | 20mM inhibition LmjIPCS [%] |
| --- | --- |
| CSCC[C@H](NC=O)C(=O)N[C@@H](Cc1ccccc1)C(=O)O [N-FORMYLMETHIONYLPHENYLALANINE] (For-Met-Phe-OH) | 5.35 |
